# Measurements as given in ChEMBL document CHEMBL4251612, “Naturally occurring Diels-Alder-type adducts from Morus nigra as potent inhibitors of Mycobacterium tuberculosis protein tyrosine phosphatase B” (Eur J Med Chem, 2018).
# Active and inactive are the calls of the source. No cut-off for these calls is given here.
# Assays:
# [1] = biological target: T1, Tyrosine-protein phosphatase non-receptor type 22 (Homo sapiens, UniProt Q9Y2R2); assay: Inhibition of LYP (unknown origin) using p-nitrophenyl phosphate as substrate preincubated for 10 mins followed by substrate addition measured every minute for 10 mins by UV-VIS spectrophotometric analysis
# T1 sequence (Q9Y2R2 whole entry): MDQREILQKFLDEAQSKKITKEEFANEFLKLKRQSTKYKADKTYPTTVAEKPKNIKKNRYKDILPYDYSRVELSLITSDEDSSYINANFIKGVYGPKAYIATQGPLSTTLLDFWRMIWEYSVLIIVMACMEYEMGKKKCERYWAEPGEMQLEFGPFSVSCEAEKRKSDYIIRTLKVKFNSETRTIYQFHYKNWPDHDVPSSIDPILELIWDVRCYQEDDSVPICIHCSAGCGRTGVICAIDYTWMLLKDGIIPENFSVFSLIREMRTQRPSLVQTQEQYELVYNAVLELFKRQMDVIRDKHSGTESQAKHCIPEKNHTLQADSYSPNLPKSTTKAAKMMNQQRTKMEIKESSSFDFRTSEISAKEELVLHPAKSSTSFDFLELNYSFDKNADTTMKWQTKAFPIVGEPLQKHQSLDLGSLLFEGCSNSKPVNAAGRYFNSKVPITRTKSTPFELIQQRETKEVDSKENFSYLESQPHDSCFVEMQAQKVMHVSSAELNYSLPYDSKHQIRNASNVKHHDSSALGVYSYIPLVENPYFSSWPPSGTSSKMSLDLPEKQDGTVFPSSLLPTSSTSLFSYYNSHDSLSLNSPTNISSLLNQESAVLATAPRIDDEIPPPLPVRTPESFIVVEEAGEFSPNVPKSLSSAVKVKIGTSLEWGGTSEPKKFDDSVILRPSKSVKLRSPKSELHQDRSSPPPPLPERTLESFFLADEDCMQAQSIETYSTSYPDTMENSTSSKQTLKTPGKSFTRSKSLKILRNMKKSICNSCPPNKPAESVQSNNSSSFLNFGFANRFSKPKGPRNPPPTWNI
# [2] = biological target: T2, Low molecular weight protein-tyrosine phosphatase A (Mycobacterium tuberculosis, UniProt P9WIA1); assay: Inhibition of Mycobacterium tuberculosis PtpA using p-nitrophenyl phosphate as substrate preincubated for 10 mins followed by substrate addition measured every minute for 10 mins by UV-VIS spectrophotometric analysis
# T2 sequence (P9WIA1 whole entry): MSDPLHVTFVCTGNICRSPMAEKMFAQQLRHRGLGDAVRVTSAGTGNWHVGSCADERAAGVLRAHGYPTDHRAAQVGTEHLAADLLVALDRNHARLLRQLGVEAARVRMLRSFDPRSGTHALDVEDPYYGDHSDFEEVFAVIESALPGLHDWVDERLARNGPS
# [3] = biological target: T3, Phosphotyrosine protein phosphatase (Mycobacterium tuberculosis, UniProt A0A045ISB3); assay: Inhibition of Mycobacterium tuberculosis PtpB using p-nitrophenyl phosphate as substrate preincubated for 10 mins followed by substrate addition measured every minute for 10 mins by UV-VIS spectrophotometric analysis
# T3 sequence (A0A045ISB3 whole entry): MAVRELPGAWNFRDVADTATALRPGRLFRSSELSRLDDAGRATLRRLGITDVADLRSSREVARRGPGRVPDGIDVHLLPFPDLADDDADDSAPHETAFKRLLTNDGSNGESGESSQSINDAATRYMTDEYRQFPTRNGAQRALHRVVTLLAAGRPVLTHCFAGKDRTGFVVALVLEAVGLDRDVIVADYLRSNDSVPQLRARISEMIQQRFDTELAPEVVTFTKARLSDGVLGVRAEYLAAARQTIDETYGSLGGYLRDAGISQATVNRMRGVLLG
# [4] = biological target: T4, Tyrosine-protein phosphatase non-receptor type 1 (Homo sapiens, UniProt P18031); assay: Inhibition of human PTP1B using p-nitrophenyl phosphate as substrate preincubated for 10 mins followed by substrate addition measured every minute for 10 mins by UV-VIS spectrophotometric analysis
# T4 sequence (P18031 whole entry): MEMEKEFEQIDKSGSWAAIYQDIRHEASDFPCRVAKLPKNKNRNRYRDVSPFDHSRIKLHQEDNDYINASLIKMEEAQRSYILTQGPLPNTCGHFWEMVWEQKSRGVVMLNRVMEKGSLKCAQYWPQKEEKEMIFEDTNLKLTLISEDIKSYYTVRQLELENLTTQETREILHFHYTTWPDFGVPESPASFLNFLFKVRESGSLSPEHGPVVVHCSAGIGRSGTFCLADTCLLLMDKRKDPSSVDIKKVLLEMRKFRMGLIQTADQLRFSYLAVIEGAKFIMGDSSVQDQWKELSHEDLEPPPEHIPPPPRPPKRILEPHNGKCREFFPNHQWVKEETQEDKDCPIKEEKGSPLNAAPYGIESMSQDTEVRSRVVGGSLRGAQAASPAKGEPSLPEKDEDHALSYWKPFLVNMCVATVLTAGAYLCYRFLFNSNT
# [5] = biological target: T5, Tyrosine-protein phosphatase non-receptor type 12 (Homo sapiens, UniProt Q05209); assay: Inhibition of PTP-PEST (unknown origin) using p-nitrophenyl phosphate as substrate preincubated for 10 mins followed by substrate addition measured every minute for 10 mins by UV-VIS spectrophotometric analysis
# T5 sequence (Q05209 whole entry): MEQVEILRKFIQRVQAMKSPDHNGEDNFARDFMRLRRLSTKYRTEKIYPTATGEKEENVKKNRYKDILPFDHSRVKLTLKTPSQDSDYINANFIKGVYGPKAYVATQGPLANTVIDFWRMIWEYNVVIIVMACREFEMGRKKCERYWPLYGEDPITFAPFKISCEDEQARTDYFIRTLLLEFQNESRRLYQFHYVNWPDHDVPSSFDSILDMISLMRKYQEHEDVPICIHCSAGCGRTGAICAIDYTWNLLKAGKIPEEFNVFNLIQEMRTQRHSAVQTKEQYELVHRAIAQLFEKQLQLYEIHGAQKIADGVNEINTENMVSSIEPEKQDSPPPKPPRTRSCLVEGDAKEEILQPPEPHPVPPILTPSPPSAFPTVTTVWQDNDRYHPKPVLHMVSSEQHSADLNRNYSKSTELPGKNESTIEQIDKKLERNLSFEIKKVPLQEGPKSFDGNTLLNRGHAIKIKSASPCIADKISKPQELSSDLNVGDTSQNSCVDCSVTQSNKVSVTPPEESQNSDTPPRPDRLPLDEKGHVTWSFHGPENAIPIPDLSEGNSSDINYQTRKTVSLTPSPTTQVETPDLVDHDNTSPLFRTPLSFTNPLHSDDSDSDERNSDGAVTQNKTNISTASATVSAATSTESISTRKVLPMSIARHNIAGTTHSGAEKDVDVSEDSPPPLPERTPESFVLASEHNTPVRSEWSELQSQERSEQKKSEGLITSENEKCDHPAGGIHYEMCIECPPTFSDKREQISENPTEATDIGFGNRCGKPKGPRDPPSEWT
# [6] = biological target: T6, Phosphotyrosine protein phosphatase (Mycobacterium tuberculosis) (UniProt A0A045ISB3); assay: Binding affinity to Mycobacterium tuberculosis PtpB assessed as protection against proteolytic cleavage at 100 to 400 uM preincubated for 10 mins before trypsin addition by mass spectrometry
# T6 sequence (whole entry): T3 sequence (A0A045ISB3 whole entry)
# [7] = biological target: T4, Tyrosine-protein phosphatase non-receptor type 1; assay: Non-competitive inhibition of human PTP1B using p-nitrophenyl phosphate as substrate up to 7 uM preincubated for 10 mins followed by substrate addition measured every minute for 10 mins by Michaelis-Menten plot analysis
# [8] = biological target: T3, Phosphotyrosine protein phosphatase; assay: Binding affinity to Mycobacterium tuberculosis PtpB by UV-VIS spectrophotometric analysis
# [9] = biological target: T3, Phosphotyrosine protein phosphatase; assay: Binding affinity to Mycobacterium tuberculosis PtpB by ITC method
# [10] = biological target: T6, Phosphotyrosine protein phosphatase (Mycobacterium tuberculosis); assay: Non-competitive inhibition of Mycobacterium tuberculosis PtpB using p-nitrophenyl phosphate as substrate up to 0.3 uM preincubated for 10 mins followed by substrate addition measured every minute for 10 mins by Michaelis-Menten plot analysis
# [11] = biological target: T6, Phosphotyrosine protein phosphatase (Mycobacterium tuberculosis); assay: Binding affinity to Mycobacterium tuberculosis PtpB assessed as binding constant by ITC method
# [12] = biological target: T6, Phosphotyrosine protein phosphatase (Mycobacterium tuberculosis); assay: Ratio of Kd for binding affinity to Mycobacterium tuberculosis PtpB by fluorescence based assay to Kd for binding affinity to Mycobacterium tuberculosis PtpB by ITC method
# [13] = Selectivity index, ratio of Ki for human PTP1B to Ki for Mycobacterium tuberculosis PtpB
# [14] = biological target: T6, Phosphotyrosine protein phosphatase (Mycobacterium tuberculosis); assay: Binding affinity to Mycobacterium tuberculosis PtpB assessed as binding constant by fluorescence based assay
# [15] = biological target: T3, Phosphotyrosine protein phosphatase; assay: Inhibition of Mycobacterium tuberculosis PtpB using p-nitrophenyl phosphate as substrate preincubated for 10 mins followed by substrate addition measured every minute for 10 mins by Michaelis-Menten plot analysis
# [16] = biological target: T6, Phosphotyrosine protein phosphatase (Mycobacterium tuberculosis); assay: Time independent inhibition of Mycobacterium tuberculosis PtpB at 0.2 uM pre-incubated for 0 to 10 mins before p-nitrophenyl phosphate substrate addition
# [17] = biological target: T6, Phosphotyrosine protein phosphatase (Mycobacterium tuberculosis); assay: Reversible inhibition of Mycobacterium tuberculosis PtpB using p-nitrophenyl phosphate as substrate assessed as enzyme recovery at 10 times IC50 preincubated for 10 mins followed by 100-fold dilution; parameters: scale not given: the % may be the effect or the level left
# [18] = biological target: T7, Tyrosine-protein phosphatase non-receptor type 1 (Homo sapiens) (UniProt P18031); assay: Binding affinity to human PTP1B assessed as protection against proteolytic cleavage at 400 uM preincubated for 10 mins before trypsin addition and measured after 2 hrs by mass spectrometry
# T7 sequence (whole entry): T4 sequence (P18031 whole entry)
# [19] = biological target: T3, Phosphotyrosine protein phosphatase; assay: Binding affinity to Mycobacterium tuberculosis PtpB by fluorescence based assay
# [20] = biological target: T6, Phosphotyrosine protein phosphatase (Mycobacterium tuberculosis); assay: Binding affinity to Mycobacterium tuberculosis PtpB assessed as sequence coverage level at 100 uM preincubated for 10 mins before trypsin addition by mass spectrometry based peptide mass fingerprint assay (reference value: 92%)
# [21] = tested on: Mycobacterium tuberculosis; assay: Antitubercular activity against Mycobacterium tuberculosis H37Ra ATCC 25177 infected in human THP1 cells assessed as reduction in CFU at 14.4 uM after 72 hrs relative to control; assay type: functional; details: H37Ra ATCC 25177, THP-1, 72 h, read-out: GI
# [22] = biological target: T6, Phosphotyrosine protein phosphatase (Mycobacterium tuberculosis); assay: Binding affinity to Mycobacterium tuberculosis PtpB assessed as fluorescence quenching at 0.1 to 4.7 uM by spectropolarimetry
# [23] = tested on: Mycobacterium tuberculosis; assay: Antitubercular activity against Mycobacterium tuberculosis H37Ra ATCC 25177 after 7 days by resazurin microtiter assay; assay type: functional; details: H37Ra ATCC 25177, 168 h
# [24] = biological target: T6, Phosphotyrosine protein phosphatase (Mycobacterium tuberculosis); assay: Binding affinity to Mycobacterium tuberculosis PtpB assessed as Stern-Volmer quenching constant by UV-VIS spectrophotometric analysis
# [25] = Cytotoxicity against human THP1 cells after 72 hrs by MTT assay; assay type: cell-based; details: THP-1 cells
compound,measurement,setting,value
CC(C)=CCc1c(O)cc2c(c1O)C(=O)C[C@@H](c1cc3c(cc1O)OC(C)(C)C=C3)O2 [CUDRAFLAVANONE A],IC50,[1],9.54 µM
same,IC50,[2],2.74 µM
same,IC50,[3],5.07 µM
same,IC50,[4],4.31 µM
same,IC50,[5],18.6 µM
CC(C)=CCc1c(-c2ccc(O)cc2O)oc2c([C@@H]3C=C(C)C[C@H](c4ccc(O)cc4O)[C@H]3C(=O)c3ccc(O)cc3O)c(O)cc(O)c2c1=O,Activity,[6],Active
same,Ki,[7],0.2 µM
same,Kd,[8],1 µM
same,Kd,[9],2.9 µM
same,IC50,[1],18.5 µM
same,inhibition,[10],Active
same,IC50,[2],5.89 µM
same,Ka,[11],3.5 ×10⁵ /M
same,Ratio,[12],2
same,Ratio Ki,[13],26
same,IC50,[3],0.83 µM
same,IC50,[4],4.56 µM
same,Ka,[14],1.4 ×10⁶ /M
same,Ki,[15],0.39 µM
same,inhibition,[16],Active
same,Activity,[17],40%
same,Activity,[18],inactive
same,Kd,[19],0.7 µM
same,Activity,[20],90%
same,inhibition of growth at 14.4 µM,[21],61.3%
same,IC50,[5],12.4 µM
same,Activity,[22],Active
same,MIC,[23],32 µg/mL
same,Ka,[24],1 ×10⁶ /M
same,CC50 at 72 h,[25],33.8 µg/mL
CC(C)=CCc1c(-c2ccc(O)cc2O)oc2c3c(cc(O)c2c1=O)OC(C)(C)C=C3 [MORUSIN],IC50,[1],15 µM
same,IC50,[2],4.65 µM
same,IC50,[3],5.26 µM
same,IC50,[4],10.3 µM
same,IC50,[5],> 100 µM
Oc1cc(O)cc(/C=C/c2ccc(O)cc2O)c1 [OXYRESVERATROL],IC50,[1],31.5 µM
same,IC50,[2],67.2 µM
same,IC50,[4],27.1 µM
same,IC50,[5],> 100 µM
